Results as given in US9210928B2, “Plant development control composition” (Syngenta Crop Protection, LLC, priority 2008, dated 2015).
“Also recorded” adds a separate entry of the source.

Columns and labels:
[1] = molecular target: T1, LeNCED1 (Solanum lycopersicum, UniProt O24023); test: In vitro NCED enzyme assay (recombinant LeNCED1 cell-free extract, HPLC, 9′-cis-neoxanthin substrate); type: biochemical, tomato; details: for LeNCED1 (11,12) Inhibition @ 100 μM (%): 100 μM inhibitor, E. coli cell extract with recombinant CCD
T1 construct: made in house; host or cells: E. coli Rosetta (DE3); crude cell-free extract
Description: In vitro NCED enzyme assay—We over-expressed LeNCED1 in E. coli, as an N-terminal His6-fusion protein (supplemental methods). Cell-free extract containing recombinant LeNCED1 was prepared in 100 mM bis-tris buffer (pH 6.7). 15 μl extract was pre-activated by addition of iron(II) sulphate (20 mM, 1 μl) and ascorbic acid (20 mM, 1 μl) on ice for 2 min, prior to use. This aliquot of enzyme was then added to an assay (150 μl total volume) containing 100 mM bis-tris buffer (pH 6.7), 0.05% v/v Triton X-100, 1.0 mg/ml catalase, and 3 μg 9′-cis-neoxanthin. The 9′-cis-neoxanthin substrate was prepared as described in supplemental methods. The enzyme assay was incubated for 15 min in the dark at 20° C. Water (700 μl) was then added, and the products extracted with ethyl acetate (3×1 ml). The organic solvent was removed at reduced pressure, the residue was dissolved in methanol (200 μl), and then 100 μl was injected onto a Phenomenex C18 reverse phase HPLC column, and a gradient of 5-10% methanol in acetonitrile/0.05% triethylamine was applied at 0.5 ml/min over 20 min, detecting at 440 nm. NCED inhibition assays contained 1-100 μM inhibitor; inhibition was calculated from the product formation after 15 min, compared to a control assay with no inhibitor present.
(§1) For the production of cell-free extracts of LeCCD1a and LeNCED1, cultures were grown to an OD of 0.6 at 37° C., then isopropyl β-D-1-thiogalactopyranoside (IPTG) was added to 0.2 mM and the cultures grown overnight at 20° C. The cells (200 ml cultures) were harvested by centrifugation (5000 rpm, 10 min) and the pellet re-suspended in 4 ml PBS, 0.1% Triton-X 100. Lysozyme was added to a final concentration of 25 μg ml^−1 and the solution incubated at room temperature for 15 min before sonication (3×30 s at 18Ω) on ice. The lysate was then centrifuged (13000 rpm, 15 min, 4° C.) and the supernatant used for the assay.
(§2) Specificity of inhibition in vitro for tomato genes LeNCED1 and LeCCD1a—In order to screen the inhibitors against enzymes which cleave carotenoids at the 9,10 position, we used the recombinant tomato LeCCD1a protein (44), because this type of enzyme can be studied using an in vitro colourimetric assay with β-apo-8′-carotenal as substrate (37). To establish the specificity of the inhibitors, they were also tested against the tomato LeNCED1 recombinant protein which cleaves 9-cis carotenoids at the 11,12 position (45). For this enzyme, the cleavage reaction was monitored by C18 reverse phase HPLC, using 9′-cis-neoxanthin as substrate.

[2] = molecular target: LeCCD1a (Solanum lycopersicum, UniProt Q6E4P5); test: In vitro LeCCD1a enzyme assay (recombinant cell-free extract, colourimetric, apo-8′-carotenal substrate); type: biochemical, tomato (Solanum lycopersicum); details: for LeCCD1a (9,10/9′,10′) Inhibition @ 100 μM (%): 100 μM inhibitor; for LeCCD1a (9,10/9′,10′) Inhibition @ 100 μM (%) / IC50: E. coli cell extract with recombinant CCD; for inhibition at 100 µM: read-out: LeCCD1a (9,10/9′,10′) Inhibition @ 100 μM (%); for IC50: read-out: LeCCD1a (9,10/9′,10′) IC50
Description: In vitro LeCCD1a enzyme assay—We over-expressed LeCCD1a in E. coli, as a GST-fusion protein (supplemental methods). The in vitro assay of LeCCD1a was based on reported methods (37), and was carried out in a 200 μl total volume in a 96-well microtitre plate, with the signal detected at 485 nm. To prepare substrate solution for each assay, 5 μl of 4% (w/v in ethanol) apo-8′-carotenal (Sigma) was mixed with 25 μl of 4% (w/v in ethanol) β-octylglucoside (Sigma), the ethanol was then evaporated under nitrogen, and the residue dissolved in 150 μl PBS buffer containing 10 mM sodium ascorbate by incubation at 20° C. for 30 min. 50 μl of cell-free extract containing recombinant LeCCD1a was added, and the reactions monitored over 30 min at 20° C.
as §1, §2

[3] = test system: whole Arabidopsis plants; test: Shoot branching in whole Arabidopsis plants grown in agar; type: in vivo; details: for unintended effects on whole Arabidopsis plants: applied to whole plants; for branching phenotype of whole plants (in words): plants grown under sterile conditions in agar
Description: Branching phenotypes of Arabidopsis plants grown in agar media for 45 days supplemented with inhibitor D6. Images are shown: (a) Col-0 (WT) without inhibitor; (b) max3-9 mutant without inhibitor; (c) Col-0 with 100 μM D6. The numbers (d) of rosette branches were quantified. Error bars represent standard error of the mean, n=6 to 12.
Stimulation of shoot branching in whole Arabidopsis plants—Inhibitors were also applied to Arabidopsis whole plants grown under sterile conditions in agar. […] Inhibitor treated plants were intermediate (mean of approximately 2 branches) and so partially mimicked max3-9 (FIG. 6d).

[4] = test system: LeCCD1a; test: In vivo enzyme assay in β-carotene-producing E. coli expressing LeCCD1a; type: cell-based, Solanum lycopersicum; details: 100 μM inhibitor, 16 hours; FIG. 4
Description: In vivo enzyme assays in E. coli—The genes of interest (supplemental Table S1) were cloned into the vector pET30c (Novagen) fused directly to the initial ATG codon with no tag, or into pGEX-4T such that the gene was fused to an N-terminal GST tag. All genes were full length except AtCCD7, which had the chloroplast signal sequence removed (supplemental methods). […] Therefore, this construct was used in subsequent assays. The plasmids were transferred to the E. coli expression strain BL21(DE3), harbouring pAC-BETA (38), and therefore producing β-carotene.
For each inhibitor assay, 2.5 ml LB media with the appropriate antibiotics (25 μg ml^−1 chloramphenicol and 50 μg ml^−1 kanamycin or 100 μg ml^−1 ampicillin) and 2.5 μM IPTG, was prepared. Inhibitors (0.1 M in 100% ethanol) were added to the media to a final concentration of 100 μM. The media was then inoculated with 0.25 ml of overnight culture (grown at 37° C. with the appropriate antibiotics) and incubated with shaking (200 rpm) at 28° C. for 16 hours. One ml of culture was harvested by microcentrifugation and resuspended thoroughly in 1 ml ethanol containing 0.2% Triton X-100. After vortexing, the extract was incubated at room temperature in the dark for 3 hours, again vortexed and then spun in a microcentrifuge for 5 min at 13000 rpm. The supernatant was removed and the O.D.453-O.D.550 was measured. The amount of β-carotene was calculated using a standard curve generated from a dilution series of β-carotene (Sigma) in ethanol with 0.2% Triton X-100; the absolute levels of β-carotene are shown in FIG. 8. The relative inhibition was calculated by the equation: (Ci−Cc)/(C1−Cc)×100, where Ci is the carotenoid level with inhibitor and CCD present, Cc is the level with CCD but without the inhibitor and C1 is the level in a strain where lacZ is expressed instead of the CCD, and no inhibitor is present. Thus the increase in β-carotene due to inhibition of the CCD […] was expressed relative to the maximum possible β-carotene content when CCD is absent (C1−Cc).
In vivo activity of inhibitors applied to E. coli strains expressing CCDs—Coloured E. coli strains that produce various carotenoids can be constructed by expression of enzymes for carotenoid synthesis (26). Upon co-expression of the appropriate CCD, the bacteria lose their colour due to cleavage of the carotenoids to colourless products (4,6,27). This technique was employed here to further explore the specificity of inhibitors, and to test their activity in vivo. The level of carotenoid in each CCD-expressing strain was compared to the level of the carotenoid in a control strain producing β-carotene but lacking any CCD gene. The difference in the carotenoid levels gave a measure of CCD activity, and inhibition of this activity was measured by addition of inhibitors to the growing medium.
The inhibitors were tested against four β-carotene-producing E. coli strains (supplemental Table S1). Three of the strains expressed highly divergent CCDs that cleave at the 9,10 position: AtCCD7 from Arabidopsis (21) and MmBCO2 from mouse (6) which both cleave at a single site (9,10 or 9′,10′ but not both), and the tomato enzyme LeCCD1a (44) which cleaves at both sites in the same substrate molecule (9,10/9′,10′ activity). The fourth strain expressed another mouse CCD, MmBCO1 (47), which cleaves centrally at 15,15′. […]

T1 sequence (O24023 17-605): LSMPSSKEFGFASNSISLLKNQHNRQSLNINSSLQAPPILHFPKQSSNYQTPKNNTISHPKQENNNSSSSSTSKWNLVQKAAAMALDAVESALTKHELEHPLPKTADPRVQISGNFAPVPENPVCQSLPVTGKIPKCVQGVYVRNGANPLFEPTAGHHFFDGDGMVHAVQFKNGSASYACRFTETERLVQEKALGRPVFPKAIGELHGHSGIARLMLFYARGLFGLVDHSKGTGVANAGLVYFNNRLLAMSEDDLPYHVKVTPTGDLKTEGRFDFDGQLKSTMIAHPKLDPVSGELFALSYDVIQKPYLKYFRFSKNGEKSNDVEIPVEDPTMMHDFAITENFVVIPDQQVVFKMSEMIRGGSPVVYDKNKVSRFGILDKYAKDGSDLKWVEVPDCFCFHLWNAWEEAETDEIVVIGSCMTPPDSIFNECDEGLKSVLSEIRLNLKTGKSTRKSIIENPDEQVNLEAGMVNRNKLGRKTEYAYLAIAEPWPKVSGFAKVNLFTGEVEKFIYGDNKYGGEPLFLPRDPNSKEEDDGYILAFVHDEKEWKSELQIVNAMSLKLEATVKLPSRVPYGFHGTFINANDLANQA
Sequence of LeCCD1a (Solanum lycopersicum, UniProt Q6E4P5) (Q6E4P5 1-545): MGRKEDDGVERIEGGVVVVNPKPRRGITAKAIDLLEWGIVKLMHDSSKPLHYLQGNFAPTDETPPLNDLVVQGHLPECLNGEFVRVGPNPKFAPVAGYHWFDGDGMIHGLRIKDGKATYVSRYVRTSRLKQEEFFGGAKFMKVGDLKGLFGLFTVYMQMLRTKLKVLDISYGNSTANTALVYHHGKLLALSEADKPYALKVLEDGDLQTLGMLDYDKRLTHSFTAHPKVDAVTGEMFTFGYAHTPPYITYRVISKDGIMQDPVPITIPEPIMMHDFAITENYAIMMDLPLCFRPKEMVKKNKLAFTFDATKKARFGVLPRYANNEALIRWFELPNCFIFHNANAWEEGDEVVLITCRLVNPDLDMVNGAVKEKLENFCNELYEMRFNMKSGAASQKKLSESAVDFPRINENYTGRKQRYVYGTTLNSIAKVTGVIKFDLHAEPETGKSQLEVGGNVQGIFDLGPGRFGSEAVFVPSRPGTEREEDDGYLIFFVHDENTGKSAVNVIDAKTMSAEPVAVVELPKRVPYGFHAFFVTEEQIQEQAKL

SMILES | LeNCED1 (11,12) Inhibition @ 100 μM (%) [1] [%] | LeCCD1a (9,10/9′,10′) Inhibition @ 100 μM (%) [2] [%] | inhibition at 100 µM [2] [%] | unintended effects on whole Arabidopsis plants [3] | further results
COc1ccc(C=CC(=O)NO)cc1OC [Compound D12, 3,4-Dimethoxyphenylpropenoyl hydroxamic acid] | 11 | 26 |  |  | 
CCCCCCCCN(O)C(=O)CCc1ccc(OC)cc1 [Compound D11, N-octyl-4-methoxyphenylpropionyl hydroxamic acid] | 15 | 53 |  |  | 
CCCCCCCCN(O)C(=O)CCc1ccc(OC)c(OC)c1 [Compound D10, N-octyl-3,4-dimethoxyphenylpropionyl hydroxamic acid] | 14 | 65 |  |  | 
COc1ccc(C=CC(=O)NO)cc1 [Compound D13, 4-Methoxyphenylpropenoyl hydroxamic acid] | 13 | 46 |  |  | 
COc1ccc(CCC(=O)N(O)Cc2ccccc2)cc1 [Compound D9, N-benzyl-4-methoxyphenylpropionyl hydroxamic acid] |  |  | > 95 |  | 
COc1ccc(C(=O)N(O)Cc2ccc(F)cc2)cc1OC [Compound F4, N-(4-fluorobenzyl)-3,4-dimethoxybenzoyl hydroxamic acid] | 0 | 0 |  |  | 
O=C(Cc1ccc(O)c(O)c1)N(O)Cc1ccc(F)cc1 [Compound D3, N-(4-fluorobenzyl)-3,4-dihydroxyphenylacetyl hydroxamic acid] |  |  | > 95 | negative effects on growth | inhibition of LeNCED1 in vitro (in words) [1]: little or no inhibition of LeNCED1; inhibition of LeCCD1 in vitro (in words) [2]: high levels of inhibition of LeCCD1; also recorded: good inhibitors of the 9,10 enzymes in vitro; IC50 [2]: 800 to 900 nM
COc1ccc(CC(=O)N(O)Cc2ccc(F)cc2)cc1OC [Compound D6, N-(4-fluorobenzyl)-3,4-dimethoxyphenylacetyl hydroxamic acid] |  |  | > 95 | without negative unintended effects on whole plants | branching phenotype of whole plants (in words) [3]: bushy appearance; also recorded: largest effect on whole Arabidopsis plants, giving the greatest number of side branches; relative inhibition of LeCCD1a in E. coli (in words) [4]: relatively weaker inhibition activity
O=C(Cc1ccc(O)cc1)N(O)Cc1ccc(F)cc1 [Compound D2, N-(4-fluorobenzyl)-4-hydroxyphenylacetyl hydroxamic acid] |  |  | > 95 | without negative unintended effects on whole plants | branching phenotype of whole plants (in words) [3]: bushy appearance; IC50 [2]: 800 to 900 nM
COc1ccc(CCC(=O)N(O)Cc2ccccc2)cc1OC [Compound D8, N-benzyl-3,4-dimethoxyphenylpropionyl hydroxamic acid] | 40 | 61 |  |  | inhibition of LeNCED1 in vitro (in words) [1]: greatest inhibition of NCED in vitro; also recorded: best 11,12 inhibitor
COc1ccc(CC(=O)N(O)Cc2ccccc2)cc1OC [Compound D5, N-benzyl-3,4-dimethoxyphenylacetyl hydroxamic acid] |  |  | > 95 | without negative unintended effects on whole plants | branching phenotype of whole plants (in words) [3]: bushy appearance; also recorded: largest effect on whole Arabidopsis plants, giving the greatest number of side branches; relative inhibition of LeCCD1a in E. coli (in words) [4]: relatively weaker inhibition activity
